Experimental data: ChEMBL document CHEMBL1201862, “PubChem BioAssay data set” (2004)
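All cell lines were grown in 96-well plates and treated with compound for 48 hours. At the GI50, growth is halved.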 The source made the active and inactive calls. Cut-off read from the data, not from the text of the source: active = GI50 up to about 1.1 µM and inactive = higher.

Key:
Assay in all cases: NCI-60 cell line screen, 48 h
A549 = system: A549
SK-MEL-2 = system: SK-MEL-2
CAKI-1 = system: CAKI-1
Malme-3M = system: Malme-3M
786-0 = system: 786-0
NCI-H23 = system: NCI-H23
HT-29 = system: HT-29
SK-OV-3 = system: SK-OV-3
PC-3 = system: PC-3
SK-MEL-5 = system: SK-MEL-5
OVCAR-4 = system: OVCAR-4
RXF 393 = system: RXF 393
M14 = system: M14
MDA-MB-231 = system: MDA-MB-231
UACC-257 = system: UACC-257
HOP-92 = system: HOP-92
OVCAR-8 = system: OVCAR-8
HCC 2998 = system: HCC 2998
SW-620 = system: SW-620
U-251 = system: U-251

SMILES | GI50 (A549) | GI50 (SK-MEL-2) | GI50 (CAKI-1) | GI50 (Malme-3M) | GI50 (786-0) | GI50 (NCI-H23) | GI50 (HT-29) | GI50 (SK-OV-3) | GI50 (PC-3) | GI50 (SK-MEL-5) | GI50 (OVCAR-4) | GI50 (RXF 393) | GI50 (M14) | GI50 (MDA-MB-231) | GI50 (UACC-257) | GI50 (HOP-92) | GI50 (OVCAR-8) | GI50 (HCC 2998) | GI50 (SW-620) | GI50 (U-251)
O=C(Oc1cccnc1)c1cc2cc(CCl)ccc2oc1=O | 65.3 µM (inactive) | 21.7 µM (inactive) | 18.7 µM (inactive) | 22.7 µM (inactive) | 18.5 µM (inactive) | 19.6 µM (inactive) | 17.1 µM (inactive) | > 100 µM (inactive) | 17.3 µM (inactive) | 44.6 µM (inactive) | 24.3 µM (inactive) | 16.4 µM (inactive) | 21.4 µM (inactive) | 20.8 µM (inactive) | 30.6 µM (inactive) | 20.6 µM (inactive) | 33.5 µM (inactive) | 57.7 µM (inactive) | 35.3 µM (inactive) | 24.3 µM (inactive)
CCCCCCCCOC(=O)c1cc([N+](=O)[O-])c(Sc2[nH]cnc3ncnc2-3)c([N+](=O)[O-])c1 | 7.98 µM (inactive) | 4.53 µM (inactive) | 3.37 µM (inactive) | 3.61 µM (inactive) | 1.47 µM (inactive) | 2.45 µM (inactive) | 1.77 µM (inactive) | 0.695 µM (active) | 3.21 µM (inactive) | 3.57 µM (inactive) | 3.49 µM (inactive) | 7.69 µM (inactive) | 0.56 µM (active) | 7.19 µM (inactive) | 5.62 µM (inactive) | 0.748 µM (active) | 2.18 µM (inactive) | 3.66 µM (inactive) | 1.76 µM (inactive) | 3.44 µM (inactive)
COc1cccc2c1C(=O)c1c(O)c3c(c(O)c1C2=O)C[C@@](O)(C(=O)CO)C[C@@H]3OC1CC(N(C)C)C(O)C(C)O1 (stereo not given in full) | < 0.01 µM (active) | < 0.0212 µM (active) | < 0.01 µM (active) | < 0.0142 µM (active) | < 0.0197 µM (active) | 0.0137 µM (active) | < 0.01 µM (active) | 0.0728 µM (active) | < 0.01 µM (active) | 0.0129 µM (active) | < 0.0189 µM (active) | 0.0138 µM (active) | 0.0306 µM (active) | 0.0528 µM (active) | 0.0285 µM (active) | 0.031 µM (active) | < 0.0255 µM (active) | 0.0675 µM (active) | < 0.01 µM (active) | < 0.0134 µM (active)
COC(=O)c1ccccc1C1CN=NC12Cc1cc3c(cc1C2=O)CCC3 (stereo not given) | 63.4 µM (inactive) | > 100 µM (inactive) | > 100 µM (inactive) | 95.9 µM (inactive) | > 100 µM (inactive) | 33.3 µM (inactive) | 87.5 µM (inactive) | 86.9 µM (inactive) | 45.5 µM (inactive) | 21.6 µM (inactive) | 44.6 µM (inactive) | > 100 µM (inactive) | 49.4 µM (inactive) | 40.1 µM (inactive) | 40.6 µM (inactive) | 30.7 µM (inactive) | 48.2 µM (inactive) | 47.1 µM (inactive) | 67.6 µM (inactive) | 70.3 µM (inactive)
O=C1Nc2ccccc2/C1=C1/Nc2ccccc2/C1=N\OCCOC1OCC(O)C(O)C1O (stereo not given) | > 100 µM (inactive) | 3.49 µM (inactive) | 6.78 µM (inactive) | > 100 µM (inactive) | > 100 µM (inactive) | > 100 µM (inactive) | > 100 µM (inactive) | 1.68 µM (inactive) | 27.2 µM (inactive) | 17.9 µM (inactive) | > 100 µM (inactive) | 50.6 µM (inactive) | 43.4 µM (inactive) | > 100 µM (inactive) | > 100 µM (inactive) | > 100 µM (inactive) | > 100 µM (inactive) | 25.5 µM (inactive) | > 100 µM (inactive) | > 100 µM (inactive)
O=C1NCN(c2ccccc2)C12CCN(CCCN1CCN(CCOC(c3ccccc3)c3ccccc3)CC1)CC2 | 4.14 µM (inactive) | 3.11 µM (inactive) | 3.78 µM (inactive) | 2.23 µM (inactive) | 0.753 µM (active) | 3.94 µM (inactive) | 1.11 µM (active) | 3.75 µM (inactive) | 3.99 µM (inactive) | 1.28 µM (inactive) | 3.53 µM (inactive) | 1.5 µM (inactive) | 1.08 µM (active) | 3.52 µM (inactive) | 1.47 µM (inactive) | 1.93 µM (inactive) | 3.33 µM (inactive) | 0.501 µM (active) | 2.62 µM (inactive) | 4.07 µM (inactive)
CN(C)c1ccc(/C=C(\NC(=O)c2ccccc2)c2nc3ccccc3c(=O)o2)cc1 | > 100 µM (inactive) | > 100 µM (inactive) | > 100 µM (inactive) | > 100 µM (inactive) | > 100 µM (inactive) | > 100 µM (inactive) | > 100 µM (inactive) | > 100 µM (inactive) | > 100 µM (inactive) | 91.4 µM (inactive) | > 100 µM (inactive) | > 100 µM (inactive) | > 100 µM (inactive) | > 100 µM (inactive) | > 100 µM (inactive) | > 100 µM (inactive) | 43.4 µM (inactive) | > 100 µM (inactive) | > 100 µM (inactive) | 82 µM (inactive)
O=C1CC2(CCC(O)(c3ccc(Cl)cc3)C(C(=O)c3ccc(Cl)cc3)C2)C(=O)c2ccccc2N1 (stereo not given) | 12.5 µM (inactive) | > 100 µM (inactive) | 9.62 µM (inactive) | > 28.1 µM (inactive) | 1.34 µM (inactive) | 14.6 µM (inactive) | 3.89 µM (inactive) | 12.4 µM (inactive) | > 100 µM (inactive) | 11.4 µM (inactive) | 0.877 µM (active) | 4.89 µM (inactive) | 18.2 µM (inactive) | 10.2 µM (inactive) | 12.2 µM (inactive) | 0.794 µM (active) | 14.7 µM (inactive) | 35.5 µM (inactive) | 27.4 µM (inactive) | 2.6 µM (inactive)
N=C(N)N/N=C/c1cc(Cl)cc(Cl)c1O | > 100 µM (inactive) | 34.1 µM (inactive) | 38.7 µM (inactive) | 42.3 µM (inactive) | 76.7 µM (inactive) | 56.5 µM (inactive) | 62.1 µM (inactive) | > 100 µM (inactive) | 36.7 µM (inactive) | 37.4 µM (inactive) | 46.9 µM (inactive) | 58.5 µM (inactive) | 54.5 µM (inactive) | 62.7 µM (inactive) | 45.3 µM (inactive) | 65 µM (inactive) | > 100 µM (inactive) | 15.8 µM (inactive) | 97.5 µM (inactive) | 48.5 µM (inactive)
CN(C)CCCN1C(=S)N(CCCN(C)C)c2c3cc(O)ccc3nc3c([N+](=O)[O-])ccc1c23 | 0.743 µM (active) | 6.47 µM (inactive) | 1.66 µM (inactive) | 6.7 µM (inactive) | 1.07 µM (active) | 3.41 µM (inactive) | 0.757 µM (active) | 4.11 µM (inactive) | 2.05 µM (inactive) | 3.18 µM (inactive) | 2.61 µM (inactive) | 3.03 µM (inactive) | 7.05 µM (inactive) | 3.71 µM (inactive) | 5.45 µM (inactive) | 2.38 µM (inactive) | 1.87 µM (inactive) | 2.44 µM (inactive) | 1.96 µM (inactive) | 2.46 µM (inactive)
COC1C(O)=C2C(=O)OC(C)(O)/C=C/C=C\C=C/C=C/C(c3ccccc3)NC(=O)/C=C/C=C/C=C/C=C/C2(C)C1O (stereo not given) | 0.00105 µM (active) | 0.0361 µM (active) | 0.0175 µM (active) | 0.0101 µM (active) | 0.00787 µM (active) | 0.0158 µM (active) | < 0.001 µM (active) | 0.0253 µM (active) | 0.00339 µM (active) | 0.0356 µM (active) | 0.0678 µM (active) | 0.0184 µM (active) | 0.0792 µM (active) | 0.0101 µM (active) | 0.0363 µM (active) | 0.00146 µM (active) | 0.0034 µM (active) | 0.0122 µM (active) | 0.00139 µM (active) | 0.00522 µM (active)
O=C(O)C(Cc1c[nH]c2ccccc12)C(=O)NO (stereo not given) | > 100 µM (inactive) | > 100 µM (inactive) | > 100 µM (inactive) | > 100 µM (inactive) | > 100 µM (inactive) | > 100 µM (inactive) | > 100 µM (inactive) | > 100 µM (inactive) | 64.1 µM (inactive) | > 100 µM (inactive) | > 100 µM (inactive) | > 100 µM (inactive) | > 100 µM (inactive) | > 100 µM (inactive) | > 100 µM (inactive) | > 100 µM (inactive) | > 100 µM (inactive) | > 100 µM (inactive) | 95.5 µM (inactive) | 49.8 µM (inactive)
O=C(Nc1ccccc1)c1cc2cc(CCl)ccc2oc1=O | 99.3 µM (inactive) | 4.8 µM (inactive) | > 100 µM (inactive) | > 100 µM (inactive) | 48.8 µM (inactive) | 16.5 µM (inactive) | 8.57 µM (inactive) | > 100 µM (inactive) | > 100 µM (inactive) | > 100 µM (inactive) | > 100 µM (inactive) | 33.4 µM (inactive) | > 100 µM (inactive) | 64.1 µM (inactive) | > 100 µM (inactive) | > 100 µM (inactive) | > 100 µM (inactive) | > 100 µM (inactive) | > 100 µM (inactive) | 47 µM (inactive)
CC(=O)Nc1ccc(-c2nc3ccccc3s2)cc1Br | > 86.9 µM (inactive) | > 100 µM (inactive) | 25.5 µM (inactive) | > 62.1 µM (inactive) | 35.6 µM (inactive) | 27.4 µM (inactive) | > 63.7 µM (inactive) | 23.2 µM (inactive) | > 100 µM (inactive) | > 100 µM (inactive) | > 38.7 µM (inactive) | 23.4 µM (inactive) | 77.4 µM (inactive) | 39.2 µM (inactive) | > 100 µM (inactive) | 46 µM (inactive) | 31 µM (inactive) | 0.29 µM (active) | > 100 µM (inactive) | 46 µM (inactive)
